{"source": "paper PMC6792352", "about": "“Limited Chemical Structural Diversity Found to Modulate Thyroid Hormone Receptor in the Tox21 Chemical Library” (Environmental Health Perspectives, 2019)", "system": "GH3-TRE-Luc cell line", "conditions": "read-out: AC50 (uM) modified / 1000, viability, 1 nM T3 present, 24 h", "note": "Structures can show the parent of a compound that is named as a salt. Where two headings read alike, the source gives them in different places.", "data": [{"molecule": "CC[C@H](c1ccc(O)cc1)[C@@H](CC)c1ccc(O)cc1", "note": "[meso-Hexestrol]", "values": [{"measurement": "CC50", "setting": "Tox21_110001=Tox21_110377", "value": 13.9, "unit": "µM"}, {"measurement": "CC50", "setting": "Tox21_110001=Tox21_301456", "value": 47, "unit": "µM"}]}, {"molecule": "CCCCCCCCCCCC(=O)O", "note": "[Triethanolamine Laurate]", "values": [{"measurement": "CC50", "setting": "Tox21_110001=Tox21_302696", "value": 85.4, "unit": "µM"}]}, {"molecule": "CC[C@]1(O)C[C@@H]2CN(CCc3c([nH]c4ccccc34)[C@@](C(=O)OC)(c3cc4c(cc3OC)N(C)[C@H]3[C@@](O)(C(=O)OC)[C@H](OC(C)=O)[C@]5(CC)C=CCN6CC[C@]43[C@@H]65)C2)C1", "note": "[Vinblastine sulfate]", "values": [{"measurement": "CC50", "setting": "Tox21_110001=Tox21_111498", "value": 0.185, "unit": "µM"}, {"measurement": "CC50", "setting": "Tox21_110001=Tox21_112735", "value": 2.29, "unit": "µM"}]}, {"molecule": "COC(=O)C1=C(C)NC(C)=C(C(=O)OCCN(C)Cc2ccccc2)C1c1cccc([N+](=O)[O-])c1", "note": "(centres unmarked) [Nicardipine]", "values": [{"measurement": "CC50", "setting": "Tox21_110001=Tox21_110211", "value": 7.48, "unit": "µM"}, {"measurement": "CC50", "setting": "Tox21_110001=Tox21_301832", "value": 22.2, "unit": "µM"}]}, {"molecule": "CCCCCCCCCCn1cc[n+](C)c1", "note": "[1-Decyl-3-methylimidazolium bromide]", "values": [{"measurement": "CC50", "setting": "Tox21_110001=Tox21_202622", "value": 18, "unit": "µM"}]}, {"molecule": "CC#C[C@]1(O)CC[C@H]2[C@@H]3CCC4=CC(=O)CCC4=C3[C@@H](c3ccc(N(C)C)cc3)C[C@@]21C", "note": "[Mifepristone]", "values": [{"measurement": "CC50", "setting": "Tox21_110001=Tox21_110952", "value": 9.81, "unit": "µM"}, {"measurement": "CC50", "setting": "Tox21_110001=Tox21_301841", "value": 36.7, "unit": "µM"}]}, {"molecule": "C=C[C@H]1C[N@@]2CC[C@H]1C[C@H]2[C@H](O)c1ccnc2ccc(OC)cc12", "note": "[Quinine]", "values": [{"measurement": "CC50", "setting": "Tox21_110001=Tox21_112389", "value": 42.9, "unit": "µM"}]}, {"molecule": "CN(Cc1cnc2nc(N)nc(N)c2n1)c1ccc(C(=O)N[C@@H](CCC(=O)O)C(=O)O)cc1", "note": "[Methotrexate]", "values": [{"measurement": "CC50", "setting": "Tox21_110001=Tox21_300269", "value": 0.164, "unit": "µM"}]}, {"molecule": "COc1ccc(C(Cl)=C(c2ccc(OC)cc2)c2ccc(OC)cc2)cc1", "note": "[Chlorotrianisene]", "values": [{"measurement": "CC50", "setting": "Tox21_110001=Tox21_202361", "value": 13.6, "unit": "µM"}]}, {"molecule": "CCCCCCCCCCCCCC[P+](CCCCCC)(CCCCCC)CCCCCC", "note": "[Trihexyltetradecylphosphonium bromide]", "values": [{"measurement": "CC50", "setting": "Tox21_110001=Tox21_200809", "value": 5.4, "unit": "µM"}]}, {"molecule": "CN(C)CCOc1ccccc1Cc1ccccc1", "note": "[Phenyltoloxamine citrate]", "values": [{"measurement": "CC50", "setting": "Tox21_110001=Tox21_110862", "value": 9.16, "unit": "µM"}]}, {"molecule": "c1cnc2c(c1)ccc1cccnc12", "note": "[1,10-Phenanthroline]", "values": [{"measurement": "CC50", "setting": "Tox21_110001=Tox21_201998", "value": 46.4, "unit": "µM"}, {"measurement": "CC50", "setting": "Tox21_110001=Tox21_303111", "value": 66.2, "unit": "µM"}]}, {"molecule": "O=c1c(O)c(-c2ccc(O)c(O)c2)oc2cc(O)cc(O)c12", "note": "[Quercetin]", "values": [{"measurement": "CC50", "setting": "Tox21_110001=Tox21_202308", "value": 40.5, "unit": "µM"}, {"measurement": "CC50", "setting": "Tox21_110001=Tox21_300285", "value": 77.2, "unit": "µM"}]}, {"molecule": "COc1ccc(N)cc1N", "note": "[2,4-Diaminoanisole sulfate hydrate]", "values": [{"measurement": "CC50", "setting": "Tox21_110001=Tox21_302700", "value": 48.9, "unit": "µM"}]}, {"molecule": "C=C(C)[C@H]1Cc2c(ccc3c2O[C@@H]2COc4cc(OC)c(OC)cc4[C@@H]2C3=O)O1", "note": "[Rotenone]", "values": [{"measurement": "CC50", "setting": "Tox21_110001=Tox21_110819", "value": 3.27, "unit": "µM"}, {"measurement": "CC50", "setting": "Tox21_110001=Tox21_201904", "value": 15.5, "unit": "µM"}, {"measurement": "CC50", "setting": "Tox21_110001=Tox21_300695", "value": 5.41, "unit": "µM"}]}, {"molecule": "[H]/N=C(\\N/C(=N/[H])NCCCCCCNC(=N)NC(=N)Nc1ccc(Cl)cc1)Nc1ccc(Cl)cc1", "note": "[Chlorhexidine]", "values": [{"measurement": "CC50", "setting": "Tox21_110001=Tox21_110325", "value": 12.4, "unit": "µM"}, {"measurement": "CC50", "setting": "Tox21_110001=Tox21_201404", "value": 7.06, "unit": "µM"}, {"measurement": "CC50", "setting": "Tox21_110001=Tox21_303445", "value": 6.48, "unit": "µM"}]}, {"molecule": "Cn1c(=O)c2c(ncn2C)n(C)c1=O", "note": "[Caffeine]", "values": [{"measurement": "CC50", "setting": "Tox21_110001=Tox21_201685", "value": 41.2, "unit": "µM"}]}, {"molecule": "CCCCCCCCCCn1cc[n+](C)c1", "note": "[1-Decyl-3-methylimidazolium trifluoromethanesulfonate]", "values": [{"measurement": "CC50", "setting": "Tox21_110001=Tox21_200593", "value": 6.68, "unit": "µM"}]}, {"molecule": "CN(C)CCCN1c2ccccc2CCc2ccc(Cl)cc21", "note": "[Clomipramine]", "values": [{"measurement": "CC50", "setting": "Tox21_110001=Tox21_110117", "value": 8.96, "unit": "µM"}]}, {"molecule": "Nc1nc(Cl)nc2c1ncn2[C@H]1C[C@H](O)[C@@H](CO)O1", "note": "[Cladribine]", "values": [{"measurement": "CC50", "setting": "Tox21_110001=Tox21_110834", "value": 0.386, "unit": "µM"}, {"measurement": "CC50", "setting": "Tox21_110001=Tox21_300596", "value": 0.166, "unit": "µM"}]}, {"molecule": "CN1CCCCC1CCN1c2ccccc2Sc2ccc([S+](C)[O-])cc21", "note": "(centres unmarked) [Mesoridazine]", "values": [{"measurement": "CC50", "setting": "Tox21_110001=Tox21_112018", "value": 18.9, "unit": "µM"}]}, {"molecule": "Cc1c(N)nc([C@H](CC(N)=O)NC[C@H](N)C(N)=O)nc1C(=O)N[C@H](C(=O)N[C@H](C)[C@@H](O)[C@H](C)C(=O)N[C@H](C(=O)NCCc1nc(-c2nc(C(=O)NCCC[S+](C)C)cs2)cs1)[C@@H](C)O)[C@@H](O[C@@H]1O[C@@H](CO)[C@@H](O)[C@H](O)[C@@H]1O[C@H]1O[C@H](CO)[C@@H](O)[C@H](OC(N)=O)[C@@H]1O)c1c[nH]cn1", "note": "[Bleomycin sulfate]", "values": [{"measurement": "CC50", "setting": "Tox21_110001=Tox21_113599", "value": 1.85, "unit": "µM"}]}, {"molecule": "C[C@H](Cc1ccc(O)c(O)c1)[C@@H](C)Cc1ccc(O)c(O)c1", "note": "[Masoprocol]", "values": [{"measurement": "CC50", "setting": "Tox21_110001=Tox21_110210", "value": 9.04, "unit": "µM"}]}, {"molecule": "C=C[C@H]1C[N@@]2CC[C@H]1C[C@H]2[C@H](O)c1ccnc2ccc(OC)cc12", "note": "[Quinine hydrochloride dihydrate]", "values": [{"measurement": "CC50", "setting": "Tox21_110001=Tox21_303565", "value": 50.6, "unit": "µM"}]}, {"molecule": "CN(C)CCC=C1c2ccccc2CCc2ccccc21", "note": "[Amitriptyline hydrochloride]", "values": [{"measurement": "CC50", "setting": "Tox21_110001=Tox21_113122", "value": 18.1, "unit": "µM"}, {"measurement": "CC50", "setting": "Tox21_110001=Tox21_201278", "value": 8.86, "unit": "µM"}, {"measurement": "CC50", "setting": "Tox21_110001=Tox21_303612", "value": 13.7, "unit": "µM"}]}, {"molecule": "C#C[C@]1(O)CC[C@H]2[C@@H]3CCC4=CCCC[C@@H]4[C@H]3CC[C@@]21C", "note": "[Lynestrenol]", "values": [{"measurement": "CC50", "setting": "Tox21_110001=Tox21_110319", "value": 17.1, "unit": "µM"}, {"measurement": "CC50", "setting": "Tox21_110001=Tox21_301969", "value": 46.9, "unit": "µM"}]}, {"molecule": "Nc1c(S(=O)(=O)O)cc(Br)c2c1C(=O)c1ccccc1C2=O", "note": "[1-Amino-4-bromo-9,10-dioxo-9,10-dihydroanthracene-2-sulfonic] [1-Amino-4-bromo-9,10-dioxo-9,10-dihydroanthracene-2-sulfonic acid]", "values": [{"measurement": "CC50", "setting": "Tox21_110001=Tox21_301752", "value": 60.1, "unit": "µM"}]}, {"molecule": "Cc1oncc1C(=O)Nc1ccc(C(F)(F)F)cc1", "note": "[Leflunomide]", "values": [{"measurement": "CC50", "setting": "Tox21_110001=Tox21_110182", "value": 9.39, "unit": "µM"}, {"measurement": "CC50", "setting": "Tox21_110001=Tox21_301873", "value": "> 90", "unit": "µM"}]}, {"molecule": "CC1=CC(=C(c2ccc(N)cc2)c2ccc(N)cc2)C=CC1=N", "note": "[C.I. Basic Violet 14]", "values": [{"measurement": "CC50", "setting": "Tox21_110001=Tox21_112288", "value": 15.1, "unit": "µM"}, {"measurement": "CC50", "setting": "Tox21_110001=Tox21_202790", "value": 5.54, "unit": "µM"}]}, {"molecule": "CN(Cc1ccc(C(C)(C)C)cc1)Cc1cccc2ccccc12", "note": "[Butenafine hydrochloride]", "values": [{"measurement": "CC50", "setting": "Tox21_110001=Tox21_112918", "value": 28.6, "unit": "µM"}]}, {"molecule": "CCn1c2ccccc2c2cc(N)ccc21", "note": "[3-Amino-9-ethylcarbazole]", "values": [{"measurement": "CC50", "setting": "Tox21_110001=Tox21_303548", "value": 93.2, "unit": "µM"}]}]}
